The source of these data is patent EP0147851B1, “Water soluble forms of polyene antibiotics, and process for preparing them” (priority 1983, dated 1985).

The subject of data set [1] is aus menschlichem Blut hergestellten Suspensionen roter Blutkörperchen. Particulars: literature value; cited from earlier work.
The nature of data set [2]: Dissolution of Nystatin complex and Nystatin base material in water at 37 °C. Format: physicochemical. Particulars: destilliertes Wasser, after the first 5 Minuten. How it is done:
Der auf die beschriebene Weise hergestellte Komplex zeigte bei den thermoanalytischen Untersuchungen im Vergleich zum Gemisch die gleichen Abweichungen wie der gemäß Beispiel 3 durch Lyophilisieren hergestellte Komplex. Die Löslichkeit von einer der Wirkstoffmenge von 10 mg/ml entsprechenden Menge Nystatin-γ-CD-Komplex und von Nystatingrundmaterial wurde in 15 ml destilliertem Wasser bei 37 °C untersucht. Die Lösungen wurden mit dem Magnetrührer bei einer Drehzahl von 150 min⁻¹ gerührt. Zu unterschiedlichen Zeitpunkten wurden Proben genommen, filtriert und spektrophotometrisch auf ihren Wirkstoffgehalt untersucht. Die Ergebnisse sind in der Tabelle 6 zusammengestellt.
Das Spektrum der von der wäßrigen Suspension des Nystatingrundmaterials genommenen Proben war nicht auswertbar. […] Zuerst deformierte sich das Maximum um 290 nm und verschwand dann ganz, und im Bereich geringerer Wellenlänge zeigten sich neue Maxima, was auf Schädigung des konjugierten Chromophorsystems schließen läßt.

For data set [3] the following is noted: per os; cited from earlier work.

As to `C[C@@H]1[C@H](O)[C@@H](C)/C=C/C=C/CC/C=C/C=C/C=C/C=C/C(O[C@H]2O[C@H](C)[C@@H](O)[C@H](N)[C@@H]2O)CC2O[C@](O)(CC(O)C(O)CCC(O)CC(O)CC(O)CC(=O)O[C@H]1C)CC(O)C2C(=O)O` (stereo partly drawn) [Nystatin], the “EH₅₀ (concentration for 50 % haemolysis)” value in data set [1] was 50 µg/mL. In data set [2], the “Zersetzung in aqueous suspension (UV spectrum)” value was “fortschreitende Zersetzung”. In addition, the Blutspiegel result in data set [3] was “überhaupt nicht meßbar”.
